Reference: ChEMBL document CHEMBL1147314, “A pentacyclic triterpene with anti-inflammatory and analgesic activity from the roots of Commiphora merkeri” (1989)

Legend:
Rattus norvegicus [1] = test: Antiinflammatory activity in rat assessed as inhibition of carrageenan-induced edema at 100 mg/kg; type: functional
Rattus norvegicus [2] = test: Analgesic activity in rat assessed as inhibition of writhing at 100 mg/kg; type: functional

CCCCC1C(=O)N(c2ccccc2)N(c2ccccc2)C1=O [PHENYLBUTAZONE]
inhibition in vivo at 100 mg/kg (Rattus norvegicus [1]): 64%

CC1(C)CC[C@]2(C)CC[C@]3(C)C(=CC[C@@H]4[C@@]5(C)C[C@@H](O)[C@H](O)[C@@](C)(CO)[C@@H]5CC[C@]43C)[C@@H]2C1
inhibition in vivo at 100 mg/kg (Rattus norvegicus [2]): 37% | inhibition in vivo at 100 mg/kg (Rattus norvegicus [1]): 28%

CC(=O)Oc1ccccc1C(=O)O [ASPIRIN]
inhibition in vivo at 100 mg/kg (Rattus norvegicus [2]): 85%
